Marks after values point to notes of the source that are not given here.
Experiments:
[1] = tested on: S. typhimurium DT 104 on alfalfa seeds; experiment: S. typhimurium DT 104 inactivation on alfalfa seeds; format: cell-based, Salmonella typhimurium DT104; design: key to S. typhimurium DT 104 counts on seeds: +: Below the minimum detection level by direct plating (<1.7 log CFU/ml), but positive by enrichment culture.; −: Negative by direct plating and enrichment culture; conditions: for S. typhimurium DT 104 counts on seeds: alfalfa seeds inoculated with 10^8 CFU/g
alfalfa seed = experiment: Seed germination percentage; conditions: treated for 1 hour at 21° C.
Method: To determine the germination percentage, treated and control seeds (5 gram per replicate) were placed on the surface of a plastic tray. A second tray containing 200 ml of sterile deionized water was placed with tray with seeds and water dropped into lower tray to maintain uniform moisture. The seeds were incubated at approximately 22° C. for 72 h.

[Ca+2].[O-]Cl.[O-]Cl [20,000 ppm, Ca(OCl)2, pH 11.4, calcium hypochlorite]
S. typhimurium DT 104 counts on seeds ([1]; dried 4 h at 21° C., 0 min of exposure): +^b (Below the minimum detection level by direct plating (<1.7 log CFU/ml), but positive by enrichment culture.) | S. typhimurium DT 104 counts on seeds ([1]; dried 4 h at 21° C., 1 min of exposure): −^c | S. typhimurium DT 104 counts on seeds ([1]; dried 4 h at 21° C., 2 min of exposure): − | S. typhimurium DT 104 counts on seeds ([1]; dried 4 h at 21° C., 5 min of exposure): − | S. typhimurium DT 104 counts on seeds ([1]; dried 4 h at 21° C., 10 min of exposure): − | S. typhimurium DT 104 counts on seeds ([1]; dried 4 h at 21° C., 20 min of exposure): − | S. typhimurium DT 104 counts on seeds ([1]; dried 4 h at 21° C., 30 min of exposure): − | S. typhimurium DT 104 counts on seeds ([1]; dried 4 h at 21° C., 60 min of exposure): − | S. typhimurium DT 104 counts on seeds ([1]; dried 24 h at 21° C., 0 min of exposure): + (Below the minimum detection level by direct plating (<1.7 log CFU/ml), but positive by enrichment culture.) | S. typhimurium DT 104 counts on seeds ([1]; dried 24 h at 21° C., 1 min of exposure): + (Below the minimum detection level by direct plating (<1.7 log CFU/ml), but positive by enrichment culture.) | S. typhimurium DT 104 counts on seeds ([1]; dried 24 h at 21° C., 2 min of exposure): − | S. typhimurium DT 104 counts on seeds ([1]; dried 24 h at 21° C., 5 min of exposure): − | S. typhimurium DT 104 counts on seeds ([1]; dried 24 h at 21° C., 10 min of exposure): − | S. typhimurium DT 104 counts on seeds ([1]; dried 24 h at 21° C., 20 min of exposure): − | S. typhimurium DT 104 counts on seeds ([1]; dried 24 h at 21° C., 30 min of exposure): − | S. typhimurium DT 104 counts on seeds ([1]; dried 24 h at 21° C., 60 min of exposure): − | S. typhimurium DT 104 counts on seeds ([1]; dried 48 h at 21° C., 0 min of exposure): + (Below the minimum detection level by direct plating (<1.7 log CFU/ml), but positive by enrichment culture.) | S. typhimurium DT 104 counts on seeds ([1]; dried 48 h at 21° C., 1 min of exposure): + (Below the minimum detection level by direct plating (<1.7 log CFU/ml), but positive by enrichment culture.) | S. typhimurium DT 104 counts on seeds ([1]; dried 48 h at 21° C., 2 min of exposure): − | S. typhimurium DT 104 counts on seeds ([1]; dried 48 h at 21° C., 5 min of exposure): − | S. typhimurium DT 104 counts on seeds ([1]; dried 48 h at 21° C., 10 min of exposure): + (Below the minimum detection level by direct plating (<1.7 log CFU/ml), but positive by enrichment culture.) | S. typhimurium DT 104 counts on seeds ([1]; dried 48 h at 21° C., 20 min of exposure): − | S. typhimurium DT 104 counts on seeds ([1]; dried 48 h at 21° C., 30 min of exposure): − | S. typhimurium DT 104 counts on seeds ([1]; dried 48 h at 21° C., 60 min of exposure): − | S. typhimurium DT 104 counts on seeds ([1]; dried 72 h at 21° C., 0 min of exposure): − | S. typhimurium DT 104 counts on seeds ([1]; dried 72 h at 21° C., 1 min of exposure): − | S. typhimurium DT 104 counts on seeds ([1]; dried 72 h at 21° C., 2 min of exposure): − | S. typhimurium DT 104 counts on seeds ([1]; dried 72 h at 21° C., 5 min of exposure): − | S. typhimurium DT 104 counts on seeds ([1]; dried 72 h at 21° C., 10 min of exposure): − | S. typhimurium DT 104 counts on seeds ([1]; dried 72 h at 21° C., 20 min of exposure): + (Below the minimum detection level by direct plating (<1.7 log CFU/ml), but positive by enrichment culture.) | S. typhimurium DT 104 counts on seeds ([1]; dried 72 h at 21° C., 30 min of exposure): + (Below the minimum detection level by direct plating (<1.7 log CFU/ml), but positive by enrichment culture.) | S. typhimurium DT 104 counts on seeds ([1]; dried 72 h at 21° C., 60 min of exposure): − | Salmonella level after treatment ([1]; seeds dried 24 h, 48 h, or 72 h, 5 min): undetectable by direct plating, but still detectable by enrichment culture | germination rate of alfalfa seed (alfalfa seed): 47.3%
